We go through 5 molecules from publication PMC11855478, “Bicyclic N,S-Acetals Containing Fused Cysteine-Amide System as New Heterocyclic Class Targeting Human Farnesyltransferase (FTase-h)” (International Journal of Molecular Sciences, 2025).

The IC50 is the midpoint of a concentration-inhibition curve.

The target in test [1] is human farnesyltransferase (FTase) (Homo sapiens, UniProt P49354+P49356). Nature of the test: FTase inhibitory assay (fluorescence, Dansyl-GCVLS). Type of test: biochemical. To be noted: for IC50: human FTase in vitro; for % FTI: inhibition of human FTase at 100 μM of tested compound, mean of two experiments. The procedure, abridged: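 Partially purified recombinant FTase with Dansyl-GCVLS and farnesyl pyrophosphate in Tris/HCl pH 7.5 (DTT, MgCl2, ZnCl2, octyl-glucoside); fluorescence (ex 340/em 486 nm) read 15 min at 30 °C. IC50 by regression for compounds inhibiting >60% at 100 µM; kinetics varied FPP (Dns-GCVLS 2.5 μM) or peptide (FPP 10 μM).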

Test [2] relates to panel of 60 human cancer cell lines. Nature of the test: NCI 60 cell panel one dose screen (whole panel). In kind it is cell-based. Details: Delta (One Dose Mean Graph): unit not given here. To be noted: 1.00E-5 Molar one dose; for Range (One Dose Mean Graph): in % (unit assumed); for Mean Growth Percent: mean over tested cell lines. The procedure, abridged:
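Sulforhodamine B read-out after 48 h treatment at one high dose (10 µM), run on the full 60-line NCI human tumour cell panel.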

A further test has as its system MOLT-4 (Leukemia). Nature of the test: NCI one dose, MOLT-4. Type of test: cell-based, human. The following applies: MOLT-4, 1.00E-5 Molar one dose. A digest of the protocol:
(§1)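 NCI-run assay on its 60 human cancer cell lines, cytotoxicity determined via sulforhodamine B after 48 h of exposure.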

Test [3] concerns A549/ATCC (Non-Small Cell Lung Cancer). Nature of the test: NCI one dose, A549/ATCC. In kind it is cell-based, human. To be noted: 1.00E-5 Molar one dose. A digest of the protocol: as §1
The subject of test [4] is HOP-62 (Non-Small Cell Lung Cancer). Nature of the test: NCI one dose, HOP-62. In kind it is cell-based, human. The following applies: HOP-62, 1.00E-5 Molar one dose. A digest of the protocol:
as §1

Test [5] deals with NCI-H23 (Non-Small Cell Lung Cancer). Nature of the test: NCI one dose, NCI-H23. Type of test: cell-based, human. The following applies: NCI-H23, 1.00E-5 Molar one dose. A digest of the protocol:
as §1

The subject of a further test is HCC-2998 (Colon Cancer). Nature of the test: NCI one dose, HCC-2998. To be noted: HCC-2998, 1.00E-5 Molar one dose. Type of test: cell-based, human. A digest of the protocol:
as §1

A further test concerns HCT-116 (Colon Cancer). Nature of the test: NCI one dose, HCT-116. Type of test: cell-based, human. The following applies: HCT-116, 1.00E-5 Molar one dose. A digest of the protocol: as §1
In the next test the test system is HCT-15 (Colon Cancer). Nature of the test: NCI one dose, HCT-15. In kind it is cell-based, human. The following applies: HCT-15, 1.00E-5 Molar one dose. The procedure, abridged:
as §1

The test system of a further test is SF-268 (CNS Cancer). Nature of the test: NCI one dose, SF-268. The following applies: SF-268, 1.00E-5 Molar one dose. Type of test: cell-based, human. A digest of the protocol: as §1
For the next test, the system named is SNB-75 (CNS Cancer). Nature of the test: NCI one dose, SNB-75. Type of test: cell-based, human. The following applies: SNB-75, 1.00E-5 Molar one dose. A digest of the protocol: as §1
A further test concerns U251 (CNS Cancer). Nature of the test: NCI one dose, U251. To be noted: U251, 1.00E-5 Molar one dose. In kind it is cell-based, human. A digest of the protocol: as §1
The next test deals with MALME-3M (Melanoma). Nature of the test: NCI one dose, MALME-3M. Type of test: cell-based, human. The following applies: 1.00E-5 Molar one dose. A digest of the protocol:
(§2)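 Sulforhodamine B protein staining measured cell growth after cells from the NCI 60-line panel were exposed to compound for 48 h.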

In a further test the test system is SK-MEL-2 (Melanoma). Nature of the test: NCI one dose, SK-MEL-2. Type of test: cell-based, human. To be noted: SK-MEL-2, 1.00E-5 Molar one dose. A digest of the protocol:
as §1

For the next test, the system named is SK-MEL-28 (Melanoma). Nature of the test: NCI one dose, SK-MEL-28. The following applies: SK-MEL-28, 1.00E-5 Molar one dose. Type of test: cell-based, human. The procedure, abridged:
as §1

Another test has as its system UACC-257 melanoma cells. Nature of the test: NCI one dose, UACC-257. The following applies: UACC-257, 1.00E-5 Molar one dose. In kind it is cell-based, human. The procedure, abridged: as §1
For the next test, the system named is IGROV1 (Ovarian Cancer). Nature of the test: NCI one dose, IGROV1. In kind it is cell-based, human. The following applies: IGROV1, 1.00E-5 Molar one dose. A digest of the protocol: as §1
The next test relates to A498 (Renal Cancer). Nature of the test: NCI one dose, A498. The following applies: A498, 1.00E-5 Molar one dose. In kind it is cell-based, human. A digest of the protocol: as §1
The test system of another test is ACHN (Renal Cancer). Nature of the test: NCI one dose, ACHN. Type of test: cell-based, human. To be noted: 1.00E-5 Molar one dose. A digest of the protocol:
as §2

The subject of another test is PC-3 (Prostate Cancer). Nature of the test: NCI one dose, PC-3. In kind it is cell-based, human. The following applies: PC-3, 1.00E-5 Molar one dose. The procedure, abridged: as §1
Test [6] has as its system MDA-MB-468 breast cancer cells. Nature of the test: NCI one dose, MDA-MB-468. In kind it is cell-based, human. To be noted: MDA-MB-468, 1.00E-5 Molar one dose. The procedure, abridged:
as §1

`COc1ccc(CNC(=O)[C@@H]2CS[C@@]3(C)c4ccccc4C(=O)N23)cc1` [4bF] gave a half-inhibitory concentration (IC50) in test [1] of 9.21 µM. In addition, in test [1], the “% FTI” value is 67%. In addition, in test [2], the “Delta (One Dose Mean Graph)” value stood at 24.39. Also, in [2], the “Range (One Dose Mean Graph)” value came out at 39.02. The “Mean Growth Percent” value in [2] is recorded as 96.71%. Further, the “Growth Percent” value in the test with MOLT-4 (Leukemia) came to 76.38%; in [3], 80.46%; in test [4], 95.58%; in test [5], 96.08%; with HCC-2998 (Colon Cancer), 101.61%; in the test on HCT-116 (Colon Cancer), 93.74%. Further, the “Growth Percent” value with HCT-15 (Colon Cancer) is recorded as 101.20%; in the test with SF-268 (CNS Cancer) it was 98.37%; in the test on SNB-75 (CNS Cancer), 94.53%; in the test on U251 (CNS Cancer), 93.45%; in the test on MALME-3M (Melanoma), 111.34%; with SK-MEL-2 (Melanoma) it was 93.38%. For the same molecule, the “Growth Percent” value with SK-MEL-28 (Melanoma) is 106.19%; with UACC-257 melanoma cells, 87.83%; with IGROV1 (Ovarian Cancer), 107.92%; with A498 (Renal Cancer), 96.46%; in the test with ACHN (Renal Cancer), 101.13%; with PC-3 (Prostate Cancer), 93.51%. In addition, the “Growth Percent” value in test [6] was 86.72%.

Take `COc1ccc(CNC(=O)[C@@H]2CS[C@H]3c4ccccc4C(=O)N23)cc1` [4aF]: the IC50 in test [1] was determined as 2.73 µM. In addition, in test [1], the “% FTI” value is on record as 80%. In addition, in test [2], the “Delta (One Dose Mean Graph)” value is on record as 26.11. Moreover, the “Range (One Dose Mean Graph)” value in test [2] stood at 46.82. Besides, the “Mean Growth Percent” value in [2] came out at 101.29%. Moreover, the “Growth Percent” value in the test with MOLT-4 (Leukemia) was determined as 97.28%; in test [3], 95.62%; in test [4], 94.33%; in test [5], 108.19%; with HCC-2998 (Colon Cancer) it was 114.93%; with HCT-116 (Colon Cancer), 101.21%. The “Growth Percent” value with HCT-15 (Colon Cancer) is 100.29%; in the test on SF-268 (CNS Cancer), 101.17%; in the test with SNB-75 (CNS Cancer) it was 114.38%; with U251 (CNS Cancer), 98.53%; in the test on MALME-3M (Melanoma), 100.21%; in the test on SK-MEL-2 (Melanoma) it was 118.58%. The “Growth Percent” value is 102.14% in the test on SK-MEL-28 (Melanoma); 97.39% in the test with UACC-257 melanoma cells; 93.78% with IGROV1 (Ovarian Cancer); 105.77% in the test on A498 (Renal Cancer); 95.49% in the test with ACHN (Renal Cancer); 90.27% with PC-3 (Prostate Cancer). The “Growth Percent” value in [6] is listed as 122.00%.

Turning to `COc1ccccc1CNC(=O)[C@@H]1CS[C@@]2(C)c3ccccc3C(=O)N12` [4bG], the “% FTI” value in [1] was found to be 30%. Besides, the “Delta (One Dose Mean Graph)” value in test [2] came to 28.52. Besides, the “Range (One Dose Mean Graph)” value in [2] is reported as 40.41. Besides, the “Mean Growth Percent” value in test [2] turned out to be 98.55%. Moreover, the “Growth Percent” value in the test on MOLT-4 (Leukemia) was 96.78%; in test [3], 78.33%; in [4], 98.30%; in test [5], 103.28%; with HCC-2998 (Colon Cancer) it was 108.79%; in the test with HCT-116 (Colon Cancer) it was 99.72%. In addition, the “Growth Percent” value is 98.16% in the test on HCT-15 (Colon Cancer); 105.82% with SF-268 (CNS Cancer); 96.63% in the test with SNB-75 (CNS Cancer); 94.53% in the test on U251 (CNS Cancer); 100.10% in the test with MALME-3M (Melanoma); 98.59% with SK-MEL-2 (Melanoma). For the same molecule, the “Growth Percent” value was determined as 109.27% in the test with SK-MEL-28 (Melanoma); 74.15% in the test on UACC-257 melanoma cells; 107.94% in the test with IGROV1 (Ovarian Cancer); 93.00% in the test with A498 (Renal Cancer); 109.61% with ACHN (Renal Cancer); 98.65% in the test on PC-3 (Prostate Cancer). Further, the “Growth Percent” value in test [6] stood at 93.22%.

Consider `COc1cc(CNC(=O)[C@@H]2CS[C@H]3c4ccccc4C(=O)N23)cc(OC)c1OC` [4aJ], for which the “% FTI” value in test [1] came to 23%. Also, the “Delta (One Dose Mean Graph)” value in test [2] was 15.66. Also, the “Range (One Dose Mean Graph)” value in test [2] is 30.62. For the same molecule, in [2], the “Mean Growth Percent” value is reported as 98.66%. The “Growth Percent” value in the test with MOLT-4 (Leukemia) was determined as 90.32%; in [3], 98.15%; in test [4] it was 94.96%; in test [5] it was 100.31%; in the test with HCC-2998 (Colon Cancer), 113.62%; in the test on HCT-116 (Colon Cancer) it was 92.64%. Also, the “Growth Percent” value is 107.89% in the test with HCT-15 (Colon Cancer); 104.63% in the test on SF-268 (CNS Cancer); 86.61% with SNB-75 (CNS Cancer); 104.21% in the test with U251 (CNS Cancer); 105.79% in the test with MALME-3M (Melanoma); 95.25% in the test on SK-MEL-2 (Melanoma). The “Growth Percent” value in the test on SK-MEL-28 (Melanoma) worked out at 109.82%; with UACC-257 melanoma cells it was 98.86%; with IGROV1 (Ovarian Cancer), 102.86%; in the test with A498 (Renal Cancer), 100.74%; in the test with ACHN (Renal Cancer), 100.59%; with PC-3 (Prostate Cancer) it was 87.87%. Further, the “Growth Percent” value in test [6] turned out to be 91.25%.

As to `COc1ccccc1CNC(=O)[C@@H]1CS[C@H]2c3ccccc3C(=O)N12` [4aG], the “% FTI” value in test [1] is on record as 21%. In addition, in test [2], the “Delta (One Dose Mean Graph)” value is on record as 31.67. Moreover, in test [2], the “Range (One Dose Mean Graph)” value came to 50.93. Moreover, the “Mean Growth Percent” value in test [2] is reported as 101.60%. The “Growth Percent” value in the test on MOLT-4 (Leukemia) was found to be 97.42%; in test [3] it was 78.79%; in [4] it was 104.24%; in [5], 106.16%; with HCC-2998 (Colon Cancer), 120.86%; in the test with HCT-116 (Colon Cancer), 105.23%. Also, the “Growth Percent” value in the test on HCT-15 (Colon Cancer) amounted to 107.09%; in the test on SF-268 (CNS Cancer) it was 102.73%; in the test with SNB-75 (CNS Cancer), 98.49%; in the test on U251 (CNS Cancer), 99.09%; with MALME-3M (Melanoma), 108.91%; in the test on SK-MEL-2 (Melanoma), 96.50%. Further, the “Growth Percent” value in the test on SK-MEL-28 (Melanoma) amounted to 116.98%; in the test with UACC-257 melanoma cells, 74.73%; in the test with IGROV1 (Ovarian Cancer) it was 109.59%; in the test on A498 (Renal Cancer) it was 84.76%; with ACHN (Renal Cancer) it was 109.98%; in the test on PC-3 (Prostate Cancer) it was 102.91%. Besides, the “Growth Percent” value in [6] is reported as 101.62%.
